pIC50: −log10 of the molar value.
Target: T1, Angiotensin II-Receptor (Rattus norvegicus, UniProt P25095)
T1 construct: The tissue (rats lung) is homogenised in Tris-buffer; from tissue; host or cells: rat lung homogenate
T1 sequence (P25095 1-359): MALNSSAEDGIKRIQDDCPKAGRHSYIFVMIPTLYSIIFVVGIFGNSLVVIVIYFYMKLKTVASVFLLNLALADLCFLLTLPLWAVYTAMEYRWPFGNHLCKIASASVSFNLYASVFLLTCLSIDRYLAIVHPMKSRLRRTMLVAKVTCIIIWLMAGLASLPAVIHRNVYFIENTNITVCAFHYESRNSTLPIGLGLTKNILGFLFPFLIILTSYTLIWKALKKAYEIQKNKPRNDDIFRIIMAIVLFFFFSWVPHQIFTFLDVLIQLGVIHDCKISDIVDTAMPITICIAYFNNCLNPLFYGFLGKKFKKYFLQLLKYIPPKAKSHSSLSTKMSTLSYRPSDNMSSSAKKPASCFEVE
Test: Angiotensin II-Receptor Bonding
Type: binding
Conditions: rats lung homogenate; 50 pM [125I]-angiotensin II; 60 minutes at 37° C.; pH 7.40
Description: Description of Method: Angiotensin II-Receptor Bonding
The tissue (rats lung) is homogenised in Tris-buffer (50 mMol Tris, 150 mMol NaCl, 5 mMol EDTA, pH 7.40) and centrifuged twice for 20 minutes at 20,000×g. The finished pellets are resuspended in incubating buffer [, (50 mMol Tris, 5 mMol MgC12, 0.2% BSA, pH 7.40) 1:75, based on the moist weight of the tissue. Each 0.1 ml of homogenate is incubated for 60 minutes at 37° C. with 50 pM [^125 I]-angiotensin II (NEN, Dreieich, FRG) with increasing concentrations of the test substance in a total volume of 0.25 ml. Incubation is ended by rapid filtration through glass fibre filter mats. The filters are each washed with 4 ml of ice cold buffer (25 mMol Tris, 2.5 mMol MgCl2, 0.1% BSA, pH 7.40). The bound radioactivity is measured using a gamma-counter. The corresponding IC50 value is obtained from the dose-activity curve.

Compound	pIC50
CCc1cn2c(C(O)c3ccc(-c4ccccc4C(=O)O)cc3)ccc(C)c2n1 (racemic) [Substance A, (R,S)-2-ethyl-8-methyl-5-[α-(2'-carboxybiphenyl-4-yl)-α-hydroxy-methyl]imidazo[1,2-a]pyridine]	7.34
CCc1cn2c(C(OC(C)=O)c3ccc(-c4ccccc4C(=O)O)cc3)ccc(C)c2n1 (racemic) [Substance B, (R,S)-2-ethyl-8-methyl-5-[α-(2'-carboxybiphenyl-4-yl)-α-acetoxy-methyl]imidazo[1,2-a]pyridine]	7.52
CCc1cn2c(C(OC(=O)NC3CCCCC3)c3ccc(-c4ccccc4C(=O)O)cc3)ccc(C)c2n1 (racemic) [Substance C, (R,S)-2-Ethyl-8-methyl-5-[α-(2'-carboxybiphenyl-4-yl)-α-cyclohexylaminocarbonyloxy-methyl]imidazo[1,2-a]pyridine]	6.64
CCCc1cn2c(C(O)c3ccc(-c4ccccc4C(=O)O)cc3)ccc(C)c2n1 (racemic) [Substance D, (R,S)-2-n-Propyl-8-methyl-5-[α-(2'-carboxybiphenyl-4-yl)-α-hydroxy-methyl]imidazo[1,2-a]pyridine-hydrate]	6.38

From US5270322A, “Imidazo[1,2-a]pyridines, pharmaceutical compositions containing these compounds and processes for preparing them” (Dr. Karl Thomae GmbH, priority 1992, dated 1993)
